# Measured values reported in ChEMBL document CHEMBL1125092, “Nonneurotoxic tetralin and indan analogues of 3,4-(methylenedioxy)amphetamine (MDA)” (J Med Chem, 1990).
# What was measured:
# [1] = system: Rattus norvegicus; assay: Hallucinogenic property was determined in groups of MDMA trained rats and percentage of animals disrupted was reported at a dose 2.2 (umol/kg),(number of animals = 11; format: functional
# [2] = system: Rattus norvegicus; assay: Tested for stimulus generation in rats trained to discriminate LSD from saline at a dose 0.55 (umol/kg),(number of animals = 9); format: functional
# [3] = system: Rattus norvegicus; assay: Hallucinogenic property was determined in groups of LSD trained rats and percentage of animals disrupted was reported at a dose 4.39 (umol/kg),(number of animals = 12); format: functional
# [4] = system: Rattus norvegicus; assay: Tested for stimulus generation in rats trained to discriminate +/-MDMA from saline at 6.59 (umol/kg),(number of animals = 9); format: functional
# [5] = system: Rattus norvegicus; assay: Tested for stimulus generation in rats trained to discriminate LSD from saline at a dose 4.39 (umol/kg),(number of animals = 12); format: functional
# [6] = system: Rattus norvegicus; assay: Hallucinogenic property was determined in groups of LSD trained rats and percentage of animals disrupted was reported at a dose 0.55 (umol/kg),(number of animals = 9); format: functional
# [7] = system: Rattus norvegicus; assay: Tested for stimulus generation in rats trained to discriminate +/-MDMA from saline at 7.69 (umol/kg),(number of animals = 12); format: functional
# [8] = system: Rattus norvegicus; assay: Tested for stimulus generation in rats trained to discriminate +/-MDMA from saline at 2.2 (umol/kg),(number of animals = 11); format: functional
# [9] = system: Rattus norvegicus; assay: Tested for stimulus generation in rats trained to discriminate +/-MDMA from saline at 3.29 (umol/kg),(number of animals = 10); format: functional
# [10] = system: Rattus norvegicus; assay: Tested for stimulus generation in rats trained to discriminate LSD from saline at a dose 1.10 (umol/kg),(number of animals = 9); format: functional
# [11] = system: Rattus norvegicus; assay: Tested for stimulus generation in rats trained to discriminate LSD from saline at 2.2 (umol/kg),(number of animals = 8); format: functional
# [12] = system: Rattus norvegicus; assay: Hallucinogenic property was determined in groups of LSD trained rats and percentage of animals disrupted was reported at a dose 2.2 (umol/kg),(number of animals = 8); format: functional
# [13] = system: Rattus norvegicus; assay: Tested for stimulus generation in rats trained to discriminate +/-MDMA from saline at 4.39 (umol/kg),(number of animals = 9); format: functional
# [14] = system: Rattus norvegicus; assay: Hallucinogenic property was determined in groups of MDMA trained rats and percentage of animals disrupted was reported at a dose 6.59 (umol/kg),(number of animals = 9; format: functional
# [15] = system: Rattus norvegicus; assay: Hallucinogenic property was determined in groups of LSD trained rats and percentage of animals disrupted was reported at a dose 8.78 (umol/kg),(number of animals = 11); format: functional
# [16] = system: Rattus norvegicus; assay: Hallucinogenic property was determined in groups of LSD trained rats and percentage of animals disrupted was reported at a dose 6.59 (umol/kg),(number of animals = 15); format: functional
# [17] = system: Rattus norvegicus; assay: Hallucinogenic property was determined in groups of MDMA trained rats and percentage of animals disrupted was reported at a dose 1.1 (umol/kg),(number of animals = 8; format: functional
# [18] = system: Rattus norvegicus; assay: Tested for stimulus generation in rats trained to discriminate +/-MDMA from saline at 8.78 (umol/kg),(number of animals = 12); format: functional
# [19] = system: Rattus norvegicus; assay: Hallucinogenic property was determined in groups of LSD trained rats and percentage of animals disrupted was reported at a dose 2.74 (umol/kg),(number of animals = 8); format: functional
# [20] = system: Rattus norvegicus; assay: Hallucinogenic property was determined in groups of LSD trained rats and percentage of animals disrupted was reported at 1.10 (umol/kg),(number of animals = 9); format: functional
# [21] = system: Rattus norvegicus; assay: Hallucinogenic property was determined in groups of MDMA trained rats and percentage of animals disrupted was reported at a dose 4.39 (umol/kg),(number of animals = 9); format: functional
# [22] = system: Rattus norvegicus; assay: Hallucinogenic property was determined in groups of MDMA trained rats and percentage of animals disrupted was reported at a dose 3.29 (umol/kg),(number of animals =10; format: functional
# [23] = system: Rattus norvegicus; assay: Hallucinogenic property was determined in groups of MDMA trained rats and percentage of animals selecting drug lever was reported at 13.18 (umol/kg),(number of animals = 5; format: functional
# [24] = system: Rattus norvegicus; assay: Hallucinogenic property was determined in groups of MDMA trained rats and percentage of animals disrupted was reported at 8.78 (umol/kg),(number of animals = 12; format: functional
# [25] = system: Rattus norvegicus; assay: Tested for stimulus generation in rats trained to discriminate +/-MDMA from saline at 2.74 (umol/kg),(number of animals = 12); format: functional
# [26] = system: Rattus norvegicus; assay: Hallucinogenic property was determined in groups of MDMA trained rats and percentage of animals disrupted was reported at a dose 7.69 (umol/kg),(number of animals = 12); format: functional
# [27] = system: Rattus norvegicus; assay: Tested for stimulus generation in rats trained to discriminate LSD from saline at a dose 2.74 (umol/kg),(number of animals = 8); format: functional
# [28] = system: Rattus norvegicus; assay: Tested for stimulus generation in rats trained to discriminate LSD from saline at a dose 6.59 (umol/kg),(number of animals = 15); format: functional
# [29] = system: Rattus norvegicus; assay: Tested for stimulus generation in rats trained to discriminate +/-MDMA from saline at 1.10 (umol/kg),(number of animals = 8); format: functional
# [30] = system: Rattus norvegicus; assay: Hallucinogenic property was determined in groups of MDMA trained rats and percentage of animals disrupted was reported at a dose 2.74 umol/kg),(number of animals = 12; format: functional
# [31] = system: Rattus norvegicus; assay: Tested for disruption in more than 50% rats trained to discriminate LSD from saline at a dose 8.78(uM/kg) (no. of animals =11); format: functional
# [32] = system: Rattus norvegicus; assay: Hallucinogenic property was determined in groups of MDMA trained rats and percentage of animals disrupted was reported at a dose 3.88 (umol/kg),(number of animals = 11); format: functional
# [33] = system: Rattus norvegicus; assay: Tested for stimulus generation in rats trained to discriminate +/-MDMA from saline at 3.88 (umol/kg),(number of animals = 11); format: functional
# [34] = system: Rattus norvegicus; assay: Tested for stimulus generation in rats trained to discriminate +/-MDMA from saline at 1.94 (umol/kg),(number of animals = 10); format: functional
# [35] = system: Rattus norvegicus; assay: Tested for stimulus generation in rats trained to discriminate LSD from saline at a dose 5.82 (umol/kg),(number of animals = 11); format: functional
# [36] = system: Rattus norvegicus; assay: Percentage of animals disrupted was determined in groups of LSD trained rats at a dose of 10.67 (umol/kg),(no of animals = 5); format: functional
# [37] = system: Rattus norvegicus; assay: Hallucinogenic property was determined in groups of LSD trained rats and percentage of animals disrupted was reported at a dose 3.88 (umol/kg),(number of animals = 10); format: functional
# [38] = system: Rattus norvegicus; assay: Hallucinogenic property was determined in groups of LSD trained rats and percentage of animals disrupted was reported at a dose 7.77 (umol/kg),(number of animals = 15); format: functional
# [39] = system: Rattus norvegicus; assay: Hallucinogenic property was determined in groups of LSD trained rats and percentage of animals disrupted was reported at 5.82 (umol/kg),(number of animals = 11); format: functional
# [40] = system: Rattus norvegicus; assay: Tested for stimulus generation in rats trained to discriminate LSD from saline at a dose 9.70 (umol/kg),(number of animals = 13); format: functional
# [41] = system: Rattus norvegicus; assay: Percentage of animals disrupted was determined in groups of MDMA trained rats at a dose 1.94 (umol/kg),(no of animals=10); format: functional
# [42] = system: Rattus norvegicus; assay: Hallucinogenic property was determined in groups of MDMA trained rats and percentage of animals disrupted was reported at a dose 11.64 (umol/kg),(number of animals = 6); format: functional
# [43] = system: Rattus norvegicus; assay: Hallucinogenic property was determined in groups of MDMA trained rats and percentage of animals disrupted was reported at a dose 7.76 (umol/kg),(number of animals = 11); format: functional
# [44] = system: Rattus norvegicus; assay: Tested for stimulus generation in rats trained to discriminate +/-MDMA from saline at 7.76 (umol/kg),(number of animals = 11); format: functional
# [45] = system: Rattus norvegicus; assay: Tested for stimulus generation in rats trained to discriminate LSD from saline at a dose 7.77 (umol/kg),(number of animals = 15); format: functional
# [46] = system: Rattus norvegicus; assay: Hallucinogenic property was determined in groups of LSD trained rats and percentage of animals disrupted was reported at a dose 9.70 (umol/kg),(number of animals = 13); format: functional
# [47] = system: Rattus norvegicus; assay: Tested for stimulus generation in rats trained to discriminate LSD from saline at a dose 3.88 (umol/kg),(number of animals = 10); format: functional
# [48] = species on record: Rattus norvegicus; assay: Compounds were evaluated for binding of [3H]paroxetine to rat hippocampal homogenate and number of binding sites (Bmax) for serotonin; format: tissue-based; details: Hippocampus
# [49] = Binding affinity was determined towards serotonin uptake site in presence of [3H]paroxetine radioligand in rat hippocampal homogenate; format: tissue-based, Hippocampus
# [50] = system: Rattus norvegicus; assay: Monoamine levels in rat hippocampus were evaluated after subcutaneous administration of 40 mg/kg for 5-HT; format: functional
# [51] = system: Rattus norvegicus; assay: Tested for stimulus generation in rats trained to discriminate MDMA from saline at a dose 3.81 (umol/kg),(number of animals = 8); format: functional
# [52] = system: Rattus norvegicus; assay: Monoamine levels in rat brain were evaluated after subcutaneous administration of 40 mg/kg for 5-HIAA; format: functional
# [53] = system: Rattus norvegicus; assay: Monoamine levels in rat brain were evaluated after subcutaneous administration of 40 mg/kg for DA; format: functional
# [54] = system: Rattus norvegicus; assay: Tested for stimulus generation in rats trained to discriminate MDMA from saline at a dose 7.62 (umol/kg),(number of animals = 8); format: functional
# [55] = system: Rattus norvegicus; assay: Tested for stimulus generation in rats trained to discriminate MDMA from saline at a dose 1.90 (umol/kg) (number of animals = 8); format: functional
# [56] = system: Rattus norvegicus; assay: Monoamine levels in rat brain were evaluated after subcutaneous administration of 40 mg/kg for HVA; format: functional
# [57] = system: Rattus norvegicus; assay: Percentage of animals disrupted was determined in groups of MDMA trained rats at a dose of 1.90 (umol/kg),(no of animals = 8); format: functional
# [58] = system: Rattus norvegicus; assay: Monoamine levels in rat brain were evaluated after subcutaneous administration of 40 mg/kg for 5-HT; format: functional
# [59] = system: Rattus norvegicus; assay: Monoamine levels in rat brain were evaluated after subcutaneous administration of 40 mg/kg for NE; format: functional
# [60] = system: Rattus norvegicus; assay: Percentage of animals disrupted was determined in groups of MDMA trained rats at a dose of 3.81 (umol/kg),(no of animals = 8); format: functional
# [61] = system: Rattus norvegicus; assay: Monoamine levels in rat brain were evaluated after subcutaneous administration of 40 mg/kg for DOPAC; format: functional
# [62] = system: Rattus norvegicus; assay: Percentage of animals disrupted was determined in groups of MDMA trained rats at a dose of 7.62 (umol/kg),(no of animals = 8); format: functional
# [63] = system: Rattus norvegicus; assay: Monoamine levels in rat hippocampus were evaluated after subcutaneous administration of 40 mg/kg for 5-HIAA; format: functional
# [64] = species on record: Rattus norvegicus; assay: Compounds were evaluated for binding of [3H]paroxetine to rat brain cortical homogenate and number of binding sites (Bmax) for serotonin; format: tissue-based
# [65] = system: Rattus norvegicus; assay: Monoamine levels in at hippocampus were evaluated after subcutaneous administration of 40 mg/kg for NE; format: functional
# [66] = system: Rattus norvegicus; assay: Percentage of animals disrupted was determined in groups of MDMA trained rats at a dose of 0.95 (umol/kg),(no of animals = 8); format: functional
# [67] = Binding affinity was determined towards serotonin uptake site in presence of [3H]paroxetine radioligand in rat brain cortical homogenate; format: tissue-based
structure (smiles),measurement,setting,value
NC1CCc2c(ccc3c2OCO3)C1 (configuration not stated),D,[1],27%
same,SDL,[2],0%
same,D,[3],33%
same,SDL,[4],75%
same,SDL,[5],25%
same,D,[6],11%
same,SDL,[7],75%
same,SDL,[8],63%
same,SDL,[9],63%
same,SDL,[10],13%
same,SDL,[11],25%
same,D,[12],0%
same,SDL,[13],50%
same,D,[14],11%
same,D,[15],55%
same,D,[16],47%
same,D,[17],38%
same,SDL,[18],71%
same,D,[19],0%
same,D,[20],11%
same,D,[21],11%
same,D,[22],20%
same,D,[23],100%
same,D,[24],42%
same,SDL,[25],63%
same,D,[26],33%
same,SDL,[27],25%
same,SDL,[28],38%
same,SDL,[29],0%
same,D,[30],33%
same,SDL,[31],71%
COc1cc(C)c(OC)c2c1CC(N)CC2 (configuration not stated),D,[32],27%
same,SDL,[33],50%
same,SDL,[34],38%
same,SDL,[35],38%
same,D,[36],100%
same,D,[37],20%
same,D,[38],47%
same,D,[39],27%
same,SDL,[40],0%
same,D,[41],20%
same,D,[42],83%
same,D,[43],27%
same,SDL,[44],38%
same,SDL,[45],13%
same,D,[46],69%
same,SDL,[47],25%
CNC(C)Cc1ccc2c(c1)OCO2 (configuration not stated) [MIDOMAFETAMINE],Bmax,[48],< 348 fM/g
same,Kd,[49],0.195 nM
same,Monoamine level,[50],<105 pg/mg
same,SDL,[51],75%
same,Monoamine level,[52],<230 pg/mg
same,Monoamine level,[53],151 pg/mg
same,SDL,[54],100%
same,SDL,[55],25%
same,Monoamine level,[56],318 pg/mg
same,D,[57],0%
same,Monoamine level,[58],<161 pg/mg
same,Monoamine level,[59],375 pg/mg
same,D,[60],0%
same,Monoamine level,[61],212 pg/mg
same,D,[62],0%
same,Monoamine level,[63],<256 pg/mg
same,Bmax,[64],< 643 fM/g
same,Monoamine level,[65],429 pg/mg
same,D,[66],0%
same,Kd,[67],0.123 nM
